“And” between values parts separate entries of the source, which are not always exact repeats. Equal entries are not always repeated. Toxic doses and inconclusive results are not listed.
System: L1210 leukemia ip in BDF1 mice, survival T/C
Assay: NCI In Vivo Anticancer Drug Screen. Data for tumor model L1210 Leukemia (intraperitoneal) in B6D2F1 (BDF1) mice
Settings: higher = longer survival
Outline: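 Mice bearing the transplanted tumor received compound or vehicle. Survival of the treated group was divided by that of the vehicle-treated control group to give the ratio.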

O=c1[nH]c(=O)n([C@H]2CCCO2)cc1F
T/C (endpoint: mean survival time, dose: 2.5 mg/kg/injection, schedule: Q01DX009 (ip), vehicle: saline): 97 % of control | T/C (endpoint: mean survival time, dose: 5.0 mg/kg/injection, schedule: Q01DX009 (ip), vehicle: saline): 98 % of control | T/C (endpoint: mean survival time, dose: 5.0 mg/kg/injection, schedule: Q01DX009 (oral), vehicle: saline): 102 % of control | T/C (endpoint: mean survival time, dose: 10.0 mg/kg/injection, schedule: Q01DX009 (ip), vehicle: saline): 100 % of control | T/C (endpoint: mean survival time, dose: 10.0 mg/kg/injection, schedule: Q01DX009 (oral), vehicle: saline): 103 % of control | T/C (endpoint: mean survival time, dose: 20.0 mg/kg/injection, schedule: Q01DX009 (ip), vehicle: saline): 103 % of control | T/C (endpoint: mean survival time, dose: 20.0 mg/kg/injection, schedule: Q01DX009 (oral), vehicle: saline): 112 % of control | T/C (endpoint: mean survival time, dose: 38.9 mg/kg/injection, schedule: Q01DX009 (ip), vehicle: saline): 97 % of control | T/C (endpoint: mean survival time, dose: 39.0 mg/kg/injection, schedule: Q01DX009 (ip), vehicle: Klucel (hydroxypropylcellulose) (HPC)): 111 % of control | T/C (endpoint: mean survival time, dose: 40.0 mg/kg/injection, schedule: Q01DX009 (ip), vehicle: saline): 101 % of control | T/C (endpoint: mean survival time, dose: 40.0 mg/kg/injection, schedule: Q01DX009 (oral), vehicle: saline): 107 % of control | T/C (endpoint: mean survival time, dose: 64.8 mg/kg/injection, schedule: Q01DX009 (ip), vehicle: saline): 107 % of control | T/C (endpoint: mean survival time, dose: 65.0 mg/kg/injection, schedule: Q01DX009 (ip), vehicle: Klucel (hydroxypropylcellulose) (HPC)): 123 % of control | T/C (endpoint: mean survival time, dose: 75.0 mg/kg/injection, schedule: Q04DX003 (ip), vehicle: other): 95 % of control | T/C (endpoint: mean survival time, dose: 80.0 mg/kg/injection, schedule: Q01DX009 (ip), vehicle: saline): 114 % of control | T/C (endpoint: mean survival time, dose: 80.0 mg/kg/injection, schedule: Q01DX009 (oral), vehicle: saline): 118 % of control | T/C (endpoint: mean survival time, dose: 105.0 mg/kg/injection, schedule: Q01DX012 (sc), vehicle: clinical formulation): 159 % of control | T/C (endpoint: mean survival time, dose: 108.0 mg/kg/injection, schedule: Q01DX009 (ip), vehicle: Klucel (hydroxypropylcellulose) (HPC)): 159 % of control | T/C (endpoint: mean survival time, dose: 108.0 mg/kg/injection, schedule: Q04DX003 (ip), vehicle: Klucel (hydroxypropylcellulose) (HPC)): 113 % of control | T/C (endpoint: mean survival time, dose: 150.0 mg/kg/injection, schedule: Q04DX003 (ip), vehicle: other): 111 % of control | T/C (endpoint: mean survival time, dose: 160.0 mg/kg/injection, schedule: Q01DX009 (ip), vehicle: saline): 150 % of control | T/C (endpoint: mean survival time, dose: 160.0 mg/kg/injection, schedule: Q01DX009 (oral), vehicle: saline): 113 % of control | T/C (endpoint: mean survival time, dose: 164.0 mg/kg/injection, schedule: Q01DX005 (sc), vehicle: clinical formulation): 159 % of control | T/C (endpoint: mean survival time, dose: 164.0 mg/kg/injection, schedule: Q01DX012 (sc), vehicle: clinical formulation): 121 % of control | T/C (endpoint: mean survival time, dose: 168.0 mg/kg/injection, schedule: Q01DX001 (ip), vehicle: other): 99 % of control and 107 % of control | T/C (endpoint: mean survival time, dose: 168.0 mg/kg/injection, schedule: Q01DX001 (sc), vehicle: other): 107 % of control and 116 % of control | T/C (endpoint: mean survival time, dose: 205.0 mg/kg/injection, schedule: Q01DX005 (sc), vehicle: clinical formulation): 97 % of control | T/C (endpoint: mean survival time, dose: 205.0 mg/kg/injection, schedule: Q01DX012 (sc), vehicle: clinical formulation): 106 % of control | T/C (endpoint: mean survival time, dose: 240.0 mg/kg/injection, schedule: Q01DX001 (ip), vehicle: other): 116 % of control and 121 % of control | T/C (endpoint: mean survival time, dose: 240.0 mg/kg/injection, schedule: Q01DX001 (sc), vehicle: other): 112 % of control and 117 % of control | T/C (endpoint: mean survival time, dose: 256.0 mg/kg/injection, schedule: Q01DX002 (sc), vehicle: clinical formulation): 111 % of control | T/C (endpoint: mean survival time, dose: 256.0 mg/kg/injection, schedule: Q01DX005 (sc), vehicle: clinical formulation): 102 % of control | T/C (endpoint: mean survival time, dose: 300.0 mg/kg/injection, schedule: Q01DX001 (ip), vehicle: Klucel (hydroxypropylcellulose) (HPC)): 98 % of control | T/C (endpoint: mean survival time, dose: 300.0 mg/kg/injection, schedule: Q01DX009 (ip), vehicle: Klucel (hydroxypropylcellulose) (HPC)): 114 % of control | T/C (endpoint: mean survival time, dose: 300.0 mg/kg/injection, schedule: Q01DX009 (ip), vehicle: saline): 102 % of control | T/C (endpoint: mean survival time, dose: 300.0 mg/kg/injection, schedule: Q04DX003 (ip), vehicle: Klucel (hydroxypropylcellulose) (HPC)): 152 % of control | T/C (endpoint: mean survival time, dose: 300.0 mg/kg/injection, schedule: Q04DX003 (ip), vehicle: other): 161 % of control | T/C (endpoint: mean survival time, dose: 320.0 mg/kg/injection, schedule: Q01DX009 (ip), vehicle: saline): 160 % of control | T/C (endpoint: mean survival time, dose: 320.0 mg/kg/injection, schedule: Q01DX009 (oral), vehicle: saline): 98 % of control | T/C (endpoint: mean survival time, dose: 363.0 mg/kg/injection, schedule: Q01DX001 (ip), vehicle: other): 121 % of control | T/C (endpoint: mean survival time, dose: 400.0 mg/kg/injection, schedule: Q01DX001 (sc), vehicle: clinical formulation): 121 % of control | T/C (endpoint: mean survival time, dose: 490.0 mg/kg/injection, schedule: Q01DX001 (ip), vehicle: other): 121 % of control | T/C (endpoint: mean survival time, dose: 500.0 mg/kg/injection, schedule: Q01DX001 (ip), vehicle: Klucel (hydroxypropylcellulose) (HPC)): 117 % of control | T/C (endpoint: mean survival time, dose: 500.0 mg/kg/injection, schedule: Q01DX001 (sc), vehicle: clinical formulation): 123 % of control | T/C (endpoint: mean survival time, dose: 500.0 mg/kg/injection, schedule: Q01DX002 (sc), vehicle: clinical formulation): 110 % of control | T/C (endpoint: mean survival time, dose: 600.0 mg/kg/injection, schedule: Q04DX003 (ip), vehicle: other): 116 % of control | T/C (endpoint: mean survival time, dose: 600.0 mg/kg/injection, schedule: Q04DX003 (ip), vehicle: saline with Tween-80): 124 % of control | T/C (endpoint: mean survival time, dose: 640.0 mg/kg/injection, schedule: Q01DX009 (ip), vehicle: saline): 104 % of control | T/C (endpoint: mean survival time, dose: 700.0 mg/kg/injection, schedule: Q01DX001 (ip), vehicle: other): 111 % of control | T/C (endpoint: mean survival time, dose: 700.0 mg/kg/injection, schedule: Q01DX001 (sc), vehicle: other): 111 % of control | T/C (endpoint: mean survival time, dose: 781.0 mg/kg/injection, schedule: Q04DX002 (sc), vehicle: clinical formulation): 100 % of control | T/C (endpoint: mean survival time, dose: 977.0 mg/kg/injection, schedule: Q01DX001 (sc), vehicle: clinical formulation): 107 % of control | T/C (endpoint: mean survival time, dose: 1000.0 mg/kg/injection, schedule: Q01DX001 (ip), vehicle: other): 96 % of control | T/C (endpoint: mean survival time, dose: 1200.0 mg/kg/injection, schedule: Q04DX003 (ip), vehicle: other): 93 % of control | T/C (endpoint: mean survival time, dose: 1300.0 mg/kg/injection, schedule: Q01DX001 (ip), vehicle: Klucel (hydroxypropylcellulose) (HPC)): 150 % of control | T/C (endpoint: mean survival time, dose: 1428.0 mg/kg/injection, schedule: Q01DX001 (ip), vehicle: other): 102 % of control | T/C (endpoint: mean survival time, dose: 1428.0 mg/kg/injection, schedule: Q01DX001 (sc), vehicle: other): 101 % of control | T/C (endpoint: mean survival time, dose: 2300.0 mg/kg/injection, schedule: Q01DX001 (ip), vehicle: Klucel (hydroxypropylcellulose) (HPC)): 115 % of control | T/C (endpoint: median survival time, dose: 5.0 mg/kg/injection, schedule: Q03HX008 (ip), vehicle: other): 95 % of control | T/C (endpoint: median survival time, dose: 5.0 mg/kg/injection, schedule: Q03HX024 (ip), vehicle: other): 95 % of control | T/C (endpoint: median survival time, dose: 9.0 mg/kg/injection, schedule: Q03HX008 (ip), vehicle: other): 96 % of control | T/C (endpoint: median survival time, dose: 9.0 mg/kg/injection, schedule: Q03HX024 (ip), vehicle: other): 102 % of control | T/C (endpoint: median survival time, dose: 14.0 mg/kg/injection, schedule: Q01DX009 (ip), vehicle: other): 100 % of control | T/C (endpoint: median survival time, dose: 14.0 mg/kg/injection, schedule: Q03HX008 (ip), vehicle: other): 94 % of control | T/C (endpoint: median survival time, dose: 14.0 mg/kg/injection, schedule: Q03HX024 (ip), vehicle: other): 96 % of control | T/C (endpoint: median survival time, dose: 23.0 mg/kg/injection, schedule: Q01DX009 (ip), vehicle: other): 103 % of control | T/C (endpoint: median survival time, dose: 23.0 mg/kg/injection, schedule: Q03HX008 (ip), vehicle: other): 93 % of control | T/C (endpoint: median survival time, dose: 23.0 mg/kg/injection, schedule: Q03HX024 (ip), vehicle: other): 103 % of control | T/C (endpoint: median survival time, dose: 39.0 mg/kg/injection, schedule: Q04DX003 (ip), vehicle: other): 111 % of control | T/C (endpoint: median survival time, dose: 39.0 mg/kg/injection, schedule: Q04DX003 (oral), vehicle: other): 100 % of control | T/C (endpoint: median survival time, dose: 39.0 mg/kg/injection, schedule: Q04DX003 (sc), vehicle: other): 106 % of control | T/C (endpoint: median survival time, dose: 65.0 mg/kg/injection, schedule: Q01DX001 (ip), vehicle: other): 100 % of control | T/C (endpoint: median survival time, dose: 65.0 mg/kg/injection, schedule: Q01DX009 (ip), vehicle: other): 104 % of control | T/C (endpoint: median survival time, dose: 65.0 mg/kg/injection, schedule: Q04DX003 (ip), vehicle: other): 95 % of control | T/C (endpoint: median survival time, dose: 65.0 mg/kg/injection, schedule: Q04DX003 (oral), vehicle: other): 103 % of control | T/C (endpoint: median survival time, dose: 65.0 mg/kg/injection, schedule: Q04DX003 (sc), vehicle: other): 101 % of control | T/C (endpoint: median survival time, dose: 75.0 mg/kg/injection, schedule: Q04DX003 (ip), vehicle: water): 95 % of control | T/C (endpoint: median survival time, dose: 108.0 mg/kg/injection, schedule: Q01DX001 (ip), vehicle: other): 122 % of control | T/C (endpoint: median survival time, dose: 108.0 mg/kg/injection, schedule: Q04DX003 (ip), vehicle: other): 100 % of control and 106 % of control | T/C (endpoint: median survival time, dose: 108.0 mg/kg/injection, schedule: Q04DX003 (oral), vehicle: other): 118 % of control | T/C (endpoint: median survival time, dose: 108.0 mg/kg/injection, schedule: Q04DX003 (sc), vehicle: other): 113 % of control | T/C (endpoint: median survival time, dose: 150.0 mg/kg/injection, schedule: Q04DX003 (ip), vehicle: water): 101 % of control | T/C (endpoint: median survival time, dose: 180.0 mg/kg/injection, schedule: Q01DX001 (ip), vehicle: other): 106 % of control | T/C (endpoint: median survival time, dose: 180.0 mg/kg/injection, schedule: Q04DX003 (ip), vehicle: other): 105 % of control and 112 % of control | T/C (endpoint: median survival time, dose: 180.0 mg/kg/injection, schedule: Q04DX003 (sc), vehicle: other): 108 % of control | T/C (endpoint: median survival time, dose: 300.0 mg/kg/injection, schedule: Q04DX003 (oral), vehicle: other): 118 % of control | T/C (endpoint: median survival time, dose: 500.0 mg/kg/injection, schedule: Q04DX003 (oral), vehicle: other): 164 % of control | T/C (endpoint: median survival time, dose: 833.0 mg/kg/injection, schedule: Q04DX003 (ip), vehicle: other): 118 % of control | T/C (endpoint: median survival time, dose: 833.0 mg/kg/injection, schedule: Q04DX003 (sc), vehicle: other): 160 % of control | T/C (endpoint: median survival time, dose: 1200.0 mg/kg/injection, schedule: Q04DX003 (ip), vehicle: water): 110 % of control | T/C (endpoint: median survival time, dose: 1300.0 mg/kg/injection, schedule: Q01DX001 (ip), vehicle: other): 104 % of control

Reference: PubChem BioAssay AID248 (DTP/NCI, 2004)
